Entries after “also recorded” stand apart in the source; their conditions may differ. Read-outs that look alike come from different tables or passages of the source.
How the values were obtained:
[1] = tested on: clinical isolates of Enterobacteriaceae; experiment: Antibiotic resistance screening (MIC against CLSI breakpoints), all strains; type: cell-based; settings: CLSI 2016-2017 breakpoints
Experimental: (§1) Phenotypic antibiotic resistance characterization of the clinical isolates was performed to determine “sensitive” (S), “intermediate” (I), and “resistant” (R) phenotypes using the 2016-2017 Clinical & Laboratory Standards Institute (CLSI) sensitive/resistant breakpoint values (Table 4).
(§2) Antibiotic resistance screening: Sensitive/resistant breakpoints were taken from the 2016-2017 Clinical & Laboratory Standards Institute report (Table 4). Liquid cultures of the clinical strains were diluted to a 0.5 McFarland standard and added to the respective antibiotic test condition. The antibiotic minimum inhibitory concentration (MIC) for each clinical isolate was determined as the lowest antibiotic concentration which prevented visible cell growth for 24 h. Strains were: “sensitive” if the MIC was equal to or below the sensitive-breakpoint concentration, “resistant” if the MIC was greater than or equal to the resistant-breakpoint concentration, and “intermediate” if the MIC was in-between.

[2] = tested on: SL1344-mCherry in HeLa cells; experiment: Double infection of HeLa cells, PNA delivery and release by SL1344-Holin; type: cell-based, Salmonella enterica serovar typhimurium
Experimental: FIG. 14. Combining the bacterial Type III secretion system (T3SS) and the holing/endolysin kill switch for PNA delivery and release. (A) Schematic showing the PNA deliver and release approach using the T3SS and Holin systems respectively to treat an intracellular infection of HeLa cells. HeLa cells were seeded 24 hours prior to infection. A 4:1 mixture of SL1344-Holin to SL1344-mCherry cells with (Bottom) and without (Top) 45 minute PNA pretreatment used to infect HeLa cells for 45 minutes. (Bottom) The PNA enters SL1344-Holin during the 45 minute pretreatment and is carried into the HeLa cell during infection. Following infection and gentamicin protection, the PNA is released from the SL1344-Holin during the 18-hours of treatment to target the SL1344-mCherry population. After 18-hours of incubation the HeLa cells are lysed to determine the number of intracellular colony forming units. (B) Normalized intracellular bacterial load represented as the ratio of normalized SL1344-mCherry:
To that end, the present inventors built a “delivery strain” of Salmonella by expressing the holin lysis cassette, encoding a holin-antiholin according to SEQ ID NO. 34, under control of an inducible laciQ promoter (referred to as SL1344-Holin, FIG. 24), and a therapeutic “target strain” of Salmonella by expressing mCherry from a plasmid in SL1344 (referred to as SL1344-mCherry). The present inventors followed the same infection protocol as described above with few modifications and treated cells with a different PNA, α-recA (N′-[…]-AEEA-[…]-C′), to show the generalizability of the assay. […] As with the previous experiment, the present inventors allowed the Salmonella to uptake the PNA during a 45 minute incubation where the treatment condition (referred to as T3SS-PNA) consisted of SL1344-Holin incubated with 10 μM of α-recA in phosphate buffer saline (PBS) and the no treatment was incubated in only PBS. In parallel, equal cell densities of the target strain SL1344-mCherry was incubated with PBS for 45-minutes. SL1344-Holin (with or without PNA) and SL1344-mCherry cells were washed and mixed in a ratio of 4:1 respectively to achieve a final total MOI of approximately 10:1 for infection of HeLa cells. The infection was carried out for 45 minutes followed by the removal of extracellular bacteria using a gentamicin wash (FIG. 5A), and 18 hours of incubation in fresh growth medium containing gentamicin. […] To account for this variation, the present inventors measured the extracellular and intracellular bacterial load before and after infection respectively and reported the normalized ratio of the latter to the former (FIG. 5B-C, FIG. 26). […]

SL1344 = experiment: Growth inhibition of SL1344 in broth culture; type: cell-based, Salmonella enterica serovar typhimurium; settings: 10 μM, 24 hours
Experimental: FIG. 25. α-recA growth inhibition of SL1344. Optical density was measured at 600 nm in 50 μL cultures and normalized optical density is reported at 24 hours as absorbance at 600 nm minus media blank and each biological replicate normalized to the optical density reading at time zero. Overnight cultures of SL1344 were diluted 1:10,000 and treated with 10 μM addition of α-recA for 24 hours. Error bars indicate standard deviation of n=3 biological replicates.

NDM-1 KPN = experiment: Antibiotic resistance screening (MIC against CLSI breakpoints); type: cell-based, Klebsiella pneumoniae; settings: meropenem, CLSI 2016-2017 breakpoints
Experimental: as §1, §2

CRE E. coli [3] = experiment: PNA growth assay (optical density) on clinical isolate; type: cell-based, Escherichia coli; settings: for growth inhibition: 10 μM PNA, optical density vs no treatment at 16 hours
Experimental: (§3) Bacterial Cell culture: The clinical isolates were obtained from the lab of Nancy Madinger at the University of Colorado Anschutz campus. Clinical isolates were grown in Cation Adjusted Mueller Hinton broth (CAMHB) (Becton, Dickinson and Company 212322) at 37° C. with 225 rpm shaking or on solid CAMHB with 1.5% agar at 37° C. Clinical isolates were maintained as freezer stocks in 90% CAMHB, 10% glycerol at −80° C. Freezer stocks were streaked out onto solid CAMHB and incubated for 16 h to produce single colonies prior to experiments. For each biological replicate, a single colony was picked from solid media and grown for 16 h in liquid CAMHB prior to experiments. Non-clinical isolates, such as E. coli MG1655 (ATCC700926) and Salmonella entorica serovar typhimurium SL1344, were cultured in liquid 2% lysogeny broth (LB) or on 2% LB with 1.5% agar for solid plates. S. typhimurium cultures were supplemented with 30 μg/mL streptomycin and SL1344 strains containing plasmids pFPV (SL1344-mCherry) or pRG1 modified with a lacIq promoter (SL1344-Holin) were supplemented with 100 μg/mL ampicillin. Freezer stocks were stored in 60% LB broth, 40% glycerol at −80° C. Freezer stocks were streaked out onto solid LB and incubated for 16 h to produce single colonies before experiments. For biological replicates, single colonies were started in liquid LB and grown for 16 hours prior to experiments. E. coli MG1655 PNA growth experiments were carried out in M9 media (1×M9 minimal media salts solution (MP Biomedicals), 2.0 mM MgSO4, and 0.1 mM CaCl2 in sterile water) with 0.4% glucose.
(§4) PNA growth assay: Biological replicates were diluted 1:10,000 into treatment condition in 384-well plates and measured for 24 h in a Tecan GENios at 562 nm with a bandwidth of 35 nm. Media absorbance blanks were subtracted from data prior to analysis. Normalized optical density (OD) data is shown normalized to the time point where the “no treatment” growth curves reached saturation phase which varied across biological replicates.

MDR E. coli = experiment: as above; type: cell-based, Escherichia coli; settings: for growth inhibition: 10 μM PNA, optical density vs no treatment at 16 hours
Experimental: as §3, §4

ESBL KPN [4] = experiment: as above; type: cell-based, Klebsiella pneumoniae; settings: for monotherapy effect (in words): 10 μM
Experimental: as §3, §4

MDR STm = experiment: as above; type: cell-based, Salmonella enterica serovar typhimurium; settings: MDR STm; 10 μM PNA; optical density vs no treatment at 16 hours
Experimental: as §3, §4

ESBL KPN [5] = experiment: Potentiation of antibiotics with PNAs (Bliss Independence); type: cell-based, Klebsiella pneumoniae; settings: 10 μM PNA + 2 μg/mL tetracycline; for S-value (Bliss Independence model): S>0 indicates synergy
Experimental: (§5) Combinatorial effects were evaluated using the Bliss Independence model where the S parameter defines a deviation from no interaction as is defined as: […]
(§6) Where ODAB is the OD at saturation time in only antibiotic, OD0 is the OD at saturation in no treatment, ODPNA is the OD at saturation in only antisense-PNA at 10 μM, and ODAB, PNA is the OD at saturation in a combination of antibiotic and antisense-PNA. Saturation time was determined as the time when the no treatment control reached its saturation growth phase. S>0 is a deviation towards synergy and S<0 is a deviation towards antagonism.

E. coli MG1655 = experiment: Growth curves and CFU of lab strain treated with PNA; type: cell-based, Escherichia coli; settings: 10 μM
Experimental: FIG. 7. Dose response of various PNA. Optical density of a 1:10,000 dilution of MG6155 from overnight liquid culture, treated with various concentrations of antisense inhibitors was measured for 3 biological replicates with error bars as standard deviations. Normalized growth was measured as the optical density at 22 hours normalized to no treatment. An asterisk (*) indicates a significant difference (p<0.05) as compared to no treatment for each inhibitor.
FIG. 8. Antisense Inhibitors targeting novel pathways can inhibit growth of E. coli. z. (A) Growth curves of E. coli MG1655 from a 1:10,000 dilution from an overnight culture, normalized to time t=0 with 10 μM of respective antisense inhibitor. […] (B) Colony forming units per milliliter of MG1655 E. coli for respective treatment as a function of time. The CFU/mL at t=0 represents the starting culture after a 1:100,000 dilution from overnight culture. […] Significance is measured as p<0.05.
as §3
PNA growth assay: Biological replicates were diluted 1:10,000 into treatment condition in 384-well plates and measured for 24 h in a Tecan GENios at 562 nm with a bandwidth of 35 nm. Media absorbance blanks were subtracted from data prior to analysis. […]

CRE E. coli [6] = type: cell-based, Escherichia coli; settings: for S-value (Bliss Independence model): S>0 indicates synergy; for growth with combination therapy (in words): p<0.05
Experimental: as §5, §6

[7] = 10 μM PNA + chloramphenicol 8 μg/mL

## CC1(C)S[C@@H]2[C@H](NC(=O)[C@H](N)c3ccccc3)C(=O)N2[C@H]1C(=O)O [ampicillin]
[1]; ampicillin
  antibiotic resistance phenotype: resistant

## N′-KFFKFFKFFK-AEEA-GTCGATAGCAT-C′ [α-recA]
[2]; SL1344-Holin pretreated 45 minutes with 10 μM PNA, HeLa cells, 18 hours, compared to no treatment
  drop of normalized ratio of SL1344-mCherry to SL1344-Holin: 99.6±0.72%
[2]; two out of three biological replicates, across a range of MOI
  fate of target strain SL1344-mCherry (in words): completely eliminated
[2]; with 1 mM IPTG during treatment, p=0.006
  normalized mCherry/Holin (in words): Significant decrease
[2]; without IPTG (leaky expression), p=0.026
  normalized mCherry/Holin (in words): Significant decrease
SL1344
  effect on Salmonella in broth cultures (in words): lethal

## C[C@@H](O)[C@H]1C(=O)N2C(C(=O)O)=C(S[C@@H]3CN[C@H](C(=O)N(C)C)C3)[C@H](C)[C@H]12 [meropenem]
NDM-1 KPN
  antibiotic resistance phenotype: resistant

## α-ffh: 12-mer antisense PNA GACAATGTTTGA (SEQ ID NO. 16) targeting ffh, conjugated to (KFF)3K cell penetrating peptide via AEEA-linker (all peptide nucleic acid (PNA); (KFF)3K cell-penetrating peptide attached via AEEA linker)
CRE E. coli [3]
  growth inhibition: 98±1.5%
MDR E. coli
  growth inhibition: 99±0.9%
ESBL KPN [4]
  monotherapy effect (in words): no or minimal growth inhibition
MDR STm
  growth inhibition: 99±0.8%
ESBL KPN [5]
  growth with combination therapy (in words): significant growth inhibition compared to each monotherapy
  S-value (Bliss Independence model): positive

## α-gyrB: 12-mer antisense PNA GTTGATGTCGAA (SEQ ID NO. 18) targeting gyrB, conjugated to (KFF)3K cell penetrating peptide via AEEA-linker (all peptide nucleic acid (PNA); (KFF)3K cell-penetrating peptide attached via AEEA linker)
CRE E. coli [3]; 10 μM
  monotherapy effect (in words): partial therapeutic effect; also recorded: effective in killing
CRE E. coli [3]
  growth inhibition: 71±12%
MDR E. coli
  monotherapy effect (in words): effective in killing
  growth inhibition: 36±14.2%
ESBL KPN [4]
  monotherapy effect (in words): no or minimal growth inhibition
ESBL KPN [4]; 10 μM PNA, optical density vs no treatment at 16 hours
  growth inhibition: 5±1.4%
MDR STm
  growth inhibition: 74±15.4%
E. coli MG1655
  effect on growth (in words): effective in killing
CRE E. coli [6]; [7]
  S-value (Bliss Independence model): 0.27
  growth with combination therapy (in words): significant growth inhibition with combination therapy compared to each monotherapy
CRE E. coli [6]; 10 μM PNA + gentamicin 4 μg/mL
  S-value (Bliss Independence model): 0.19
  growth with combination therapy (in words): significant growth inhibition with combination therapy compared to each monotherapy
ESBL KPN [5]
  growth with combination therapy (in words): significant growth inhibition compared to each monotherapy
  S-value (Bliss Independence model): positive

## CO/N=C(\C(=O)N[C@@H]1C(=O)N2C(C(=O)O)=C(CSc3nc(=O)c(=O)[nH]n3C)CS[C@H]12)c1csc(N)n1 [ceftriaxone]
[1]; ceftriaxone
  antibiotic resistance phenotype: resistant

Source: US20210087565A1, “ANTISENSE ANTIBIOTICS AND BACTERIAL SECRETION BASED DELIVERY SYSTEM TO ELIMINATE DRUG-RESISTANT BACTERIA” (priority 2018, published 2021)
